Assay results reported in US9504659B2 (priority 2006, dated 2016).

Assay: ER804057 content of the emulsion by extraction and HPLC-UV after storage
Type: physicochemical
Conditions: emulsion PIT-ER804057 at 5%; for ER804057 content in the emulsion: theoretical concentration 40 μg/ml
Experimental: The stability of this thermoreversible emulsion was evaluated after storage for 6 months at a temperature of +4° C. by verifying the ER804057 content in the emulsion and by checking the size distribution of oil droplets in the emulsion. To assay ER804057, a selective extraction of ER804057 from the emulsion was carried out, followed by analysis by high performance liquid chromatography (HPLC) coupled to UV detector equipped with […]. The ER804057 content of the emulsion to be verified was determined using a standard range containing between 5 and 25 μg/ml of ER804057. In order to compensate for the variations in extraction yields, a constant amount of an internal standard, the chemical structure of which is very similar to that of ER804057, was introduced into each sample to be assayed (including into the samples of the standard range). This internal standard was the chemical molecule called ER803022.
The sample of PIT-ER804057 at 5% to be assayed was prepared by taking an aliquot of the emulsion PIT-ER804057 at 5%, to which 10 μg of internal standard was added, and which was diluted in water for injectable preparation.
The extraction of ER804057 from the samples of the standard range or from the samples of PIT-ER804057 at 5% was carried out in the following way: The sample was solubilized with CM2:1. The two-phase system obtained was composed of a chloroform phase containing predominantly ER804057 and an aqueous phase containing the other compounds of the emulsion. The chloroform phase was recovered and evaporated under hot conditions under a stream of nitrogen. The dry extract obtained was taken up and again solubilized in the CM2:1 mixture. […] The dry extract derived from each sample was conserved at −20° C. before being analyzed by HPLC.
The dry extract of each sample was taken up with 50 μl of CM4:1, and then diluted to ½ in methanol, then to 1/10th in a mixture of 30% acetonitrile-water for injectable preparation, 20 μl of the dilution were injected into a liquid chromatography apparatus (HPLC Merck Hitachi, serie 7000) comprising a Waters XTerra™ RP8 column pre-equilibrated in a mobile phase consisting of a mixture of 80% of phase A (water for injectable preparation/ethanol 50/50 containing 2% H3PO4) and 20% of phase B (ethanol containing 2% H3PO4), ER804057 and the internal standard were eluted using a gradient of ethanol containing 2% H3PO4. At the outlet of the HPLC, the eluate meets the UV detector and the molecules are detected at the wavelength of 215 nm. […] Once the curve was established, the amount of ER804057 present in the emulsion PIT-ER804057 at 5% was then determined by measuring the ratio of the surface areas of the ER804057/internal standard peaks.

Which results are given for CCCCCCCCCCCC(=O)CC(=O)N[C@H](COCC[C@@H](CCCCCCC)OC(=O)CCCCCCCCCCC)COP(=O)(O)OCCNC(=O)NCCOP(=O)(O)OC[C@@H](COCC[C@@H](CCCCCCC)OC(=O)CCCCCCCCCCC)NC(=O)CC(=O)CCCCCCCCCCC [ER804057, dodecanoic acid (1R,6R,22R,27R)-1,27-diheptyl-9,19-dihydroxy-9,19-dioxido-14-oxo-6,22-bis[(1,3-dioxotetradecyl)amino]-4,8,10,18,20,24-hexaoxa-13,15-diaza-9,19-diphosphaheptacosane-1,27-diyl ester]?
ER804057 content in the emulsion (1 month at +4° C.): 38 µg/mL; ER804057 content in the emulsion (3 months at +4° C.): 37 µg/mL; change of ER804057 concentration in the emulsion on storage (6 months at +4° C.): has not substantially varied; ER804057 content in the emulsion (6 months at +4° C.): 42 µg/mL
